The text below walks through data of US20160257651A1, “NOVEL COMPOUND WITH ANTIBACTERIAL ACTIVITY” (priority 2013, published 2016).

Experiment [1] deals with S. aureus MR5867 two-step mutant. As to the kind of experiment: MIC against stepwise QRDR mutants. The class given is cell-based. The settings on record: Staphylococcus aureus. The text has this:
(§1) In order to further verify that the action site of the compound J-131CP is gyrA, there were examined antibacterial activities against the MRSA, S. aureus MR5867, and stepwise-mutated strains (one-step mutant strain to three-step mutant strain) of S. aureus MR5867 in which mutation was introduced into QRDR, as well as the MSSA, S. aureus MS5952, and stepwise-mutated strains (one-step mutant strain to three-step mutant strain) of S. aureus MS5952 in which mutation was introduced into QRDR (those strains mentioned above are described in Antimicrob. Agents Chemother., 42(8), pp. 1917-1922, 1998) by the following methods. The strains used for this test example are available from the inventors of the present invention.
(§2) The compound J-131CP and quinolones were prepared in the same manner as that of Test Example 1-1.
(§3) Then, the cell suspension was diluted 500 times with CAMHB mentioned above.
(§4) CAMHB containing each of the compound J-131CP and quinolones at each concentration was added to each well of a 96-well plate in a volume of 50 μL/well, the aforementioned cell suspension diluted 500 times was added to the well in a volume of 50 μL/well, and stationary culture was carried out overnight at 37° C. in the same manner as that of Test Example 1-1.

The test system of experiment [2] is S. aureus MR5867 three-step mutant. As to the kind of experiment: MIC against stepwise QRDR mutants. In kind it is cell-based. The settings on record: Staphylococcus aureus.
Excerpt: as §1, §2, §3, §4

The subject of experiment [3] is S. aureus MS5952 three-step mutant. The experiment can be described thus: MIC against stepwise QRDR mutants. The settings on record: Staphylococcus aureus. The class given is cell-based.
Excerpt: as §1, §2, §3, §4

For experiment [4], the system named is S. aureus MS5952 two-step mutant. The experiment can be described thus: MIC against stepwise QRDR mutants. The class given is cell-based. The settings on record: Staphylococcus aureus.
Excerpt: as §1, §2, §3, §4

The test system of the next experiment is S. aureus MR5867. The experiment can be described thus: MIC against stepwise QRDR mutants. The settings on record: Staphylococcus aureus. In kind it is cell-based.
Excerpt: as §1, §2, §3, §4

The next experiment has as its system S. aureus MS5952. The experiment can be described thus: MIC against stepwise QRDR mutants. The class given is cell-based. The settings on record: Staphylococcus aureus.
Excerpt: as §1, §2, §3, §4

The next experiment has as its system S. aureus Mu50 NR1-1. As to the kind of experiment: microbe, parasite or virus in culture. In kind it is cell-based. The settings on record: Staphylococcus aureus, MU50NR11. The procedure: as §3
The test system of the next experiment is E. faecalis 36-15722. As to the kind of experiment: MIC against Enterococcus bacteria. In kind it is cell-based, Enterococcus faecalis. The settings on record: Enterococcus faecalis, 3615722; E. faecalis 36-15722, quinolone-resistant; ParC 80Ile, GyrA 84Ile; read-out: MIC. The procedure: (§5) Antibacterial activities of the compound J-131CP against Enterococcus bacteria (Enterococcus faecium and Enterococcus faecalis) were examined by the following methods.
as §2
(§6) Cell suspensions were prepared in the same manner as that of Test Example 1-1 described in the section of measurement of MIC in Test Example 1-1, except that the Enterococcus bacterium strains mentioned in Table 8 were used instead of Staphylococcus aureus, and MICs of the compound J-131CP and quinolones as control were determined for the strains in the same manner as that of Test Example 1-1 described in the section of measurement of MIC in Test Example 1-1. In Table 8, the amino acid substitution mutations in QRDR of the strains are underlined.

Experiment [5] relates to Staphylococcus aureus MI (VISA). The experiment can be described thus: MIC, S. aureus categories (Test Example 3). In kind it is cell-based. The procedure: (§7) The antibacterial activities of the compound J-131CP against Staphylococcus aureus strains belonging to the five categories of Staphylococcus aureus, i.e., MSSA, MRSA, community-acquired-infection type MRSA (CA-MRSA), VISA, and VRSA, were investigated.
as §2
(§8) Cell suspensions were prepared in the same manner as that of Test Example 1-1 described in the section of measurement of MIC in Test Example 1-1, except that the strains mentioned in Table 6 were used as Staphylococcus aureus, and MICs of the compound J-131CP and quinolones as the control were determined for the strains in the same manner as that of Test Example 1-1. In Table 6, the amino acid substitution mutations in QRDR of the strains are underlined.

Experiment [6] has as its system Staphylococcus aureus NCTC8325 (MSSA). As to the kind of experiment: MIC, S. aureus categories (Test Example 3). In kind it is cell-based. The settings on record: Staphylococcus aureus, strain NCTC8325, MSSA. The procedure:
as §7, §2, §8

Experiment [7] relates to Staphylococcus aureus VRS1 (VRSA). As to the kind of experiment: MIC, S. aureus categories (Test Example 3). The class given is cell-based. The procedure:
as §7, §2, §8

The test system of experiment [8] is Staphylococcus aureus KSA36 (MRSA). As to the kind of experiment: MIC, S. aureus categories (Test Example 3). The class given is cell-based. The procedure:
as §7, §2, §8

The test system of experiment [9] is Staphylococcus aureus BR2 (VISA). As to the kind of experiment: MIC, S. aureus categories (Test Example 3). In kind it is cell-based. The procedure:
as §7, §2, §8

For experiment [10], the system named is Staphylococcus aureus VRS3a (VRSA). The experiment can be described thus: MIC, S. aureus categories (Test Example 3). In kind it is cell-based. The procedure:
as §7, §2, §8

The subject of experiment [11] is Staphylococcus aureus VRS5 (VRSA). The experiment can be described thus: MIC, S. aureus categories (Test Example 3). The class given is cell-based. The procedure:
as §7, §2, §8

Experiment [12] relates to Staphylococcus aureus ATCC29213 (MSSA). The experiment can be described thus: MIC, S. aureus categories (Test Example 3). The class given is cell-based. The settings on record: strain ATCC29213, MSSA, read-out: MIC. The procedure: as §7, §2, §8
The test system of experiment [13] is Staphylococcus aureus MW2 (CA-MRSA). The experiment can be described thus: MIC, S. aureus categories (Test Example 3). The settings on record: Staphylococcus aureus; strain MW2, CA-MRSA; read-out: MIC. The class given is cell-based. The procedure: as §7, §2, §8
Experiment [14] relates to Staphylococcus aureus USA300FPR (CA-MRSA). The experiment can be described thus: MIC, S. aureus categories (Test Example 3). In kind it is cell-based. The procedure: as §7, §2, §8
For another experiment, the system named is S. aureus Mu50. The experiment can be described thus: microbe, parasite or virus in culture. In kind it is cell-based, Staphylococcus aureus. The settings on record: for MIC ratio (Mu50 MIC/FDA209P MIC): MIC for S. aureus Mu50 / MIC for S. aureus FDA209P; for MIC: S. aureus Mu50, quinolone-resistant MRSA, ParC S80F, GyrA S84L. The procedure:
as §3

Experiment [15] deals with S. aureus FDA209P (ATCC 6538P). As to the kind of experiment: microbe, parasite or virus in culture. The settings on record: Staphylococcus aureus, ATCC 6538P / FDA209P / MSSA, quinolone-susceptible MSSA, ParC 80S, GyrA 84S, read-out: MIC. The class given is cell-based, Staphylococcus aureus. The procedure: as §3
In another experiment the test system is E. faecium NCTC12202. The experiment can be described thus: MIC against Enterococcus bacteria. In kind it is cell-based, Enterococcus faecium. The settings on record: Enterococcus faecium, NCTC 12202 / VRE; E. faecium NCTC12202, VRE, quinolone-susceptible; read-out: MIC. The procedure:
as §5, §2, §6

The subject of the next experiment is E. faecium RPR2. As to the kind of experiment: MIC against Enterococcus bacteria. The class given is cell-based, Enterococcus faecium. The settings on record: Enterococcus faecium, RPR2. The procedure: as §5, §2, §6

Each structure is given as a SMILES string. ≈ marks a conversion by molar mass, not a printed value. Read-outs that look alike come from different tables or passages of the source.

Regarding `NC1CCN(c2nc3c(cc2F)c(=O)c(C(=O)O)cn3-c2ccc(F)cc2F)C1` (stereo not shown) [TSX, tosufloxacin], the MIC in [1] was 8 µg/mL (≈ 19.8 µM); in experiment [2], over 128 µg/mL; in experiment [3] it was over 128 µg/mL; in experiment [4], 8 µg/mL (≈ 19.8 µM); against S. aureus MR5867 it was under 0.06 µg/mL; against S. aureus MS5952, 0.25 µg/mL (≈ 0.618 µM). Further, the MIC was 0.5 µg/mL (≈ 1.24 µM) against S. aureus Mu50 NR1-1; over 128 µg/mL in the experiment with E. faecalis 36-15722; 16 µg/mL (≈ 39.6 µM) in experiment [5]; at most 0.06 µg/mL in [6] (read-out: MIC); 4 µg/mL (≈ 9.89 µM) in [7]; over 128 µg/mL in [8]. The MIC in experiment [9] is 32 µg/mL (≈ 79.1 µM); in experiment [10], over 128 µg/mL; in experiment [11] it was over 128 µg/mL; in [12] it was at most 0.06 µg/mL; in experiment [13], at most 0.06 µg/mL; in [14], 16 µg/mL (≈ 39.6 µM). The MIC in experiment [15] was at most 0.06 µg/mL; in the experiment on E. faecium NCTC12202, 0.25 µg/mL (≈ 0.618 µM); against E. faecium RPR2, over 128 µg/mL. The “MIC ratio (Mu50 MIC/FDA209P MIC)” value in the experiment with S. aureus Mu50 was “≧2048”.

Regarding `C[C@@H]1CN(c2c(F)c(N)c3c(=O)c(C(=O)O)cn(C4CC4)c3c2F)C[C@H](C)N1` [SPX, sparfloxacin], the MIC is 8 µg/mL (≈ 20.4 µM) in experiment [1]; 16 µg/mL (≈ 40.8 µM) in experiment [2]; 128 µg/mL (≈ 326 µM) in experiment [3]; 16 µg/mL (≈ 40.8 µM) in experiment [4]; under 0.06 µg/mL with S. aureus MR5867; under 0.06 µg/mL in the experiment with S. aureus MS5952. For the same compound, the MIC against S. aureus Mu50 NR1-1 was determined as 0.25 µg/mL (≈ 0.637 µM); in the experiment on E. faecalis 36-15722 it was 64 µg/mL (≈ 163 µM); in experiment [5], 32 µg/mL (≈ 81.5 µM); in experiment [6], 0.125 µg/mL (≈ 0.319 µM); in [7], 8 µg/mL (≈ 20.4 µM); in experiment [8], 128 µg/mL (≈ 326 µM). For the same compound, the MIC in experiment [9] is 32 µg/mL (≈ 81.5 µM); in experiment [10], 16 µg/mL (≈ 40.8 µM); in experiment [11], 128 µg/mL (≈ 326 µM); in [12], at most 0.06 µg/mL; in [13], at most 0.06 µg/mL; in [14] it was 8 µg/mL (≈ 20.4 µM). Besides, the MIC is 16 µg/mL (≈ 40.8 µM) against S. aureus Mu50; 8 to 128 µg/mL (≈ 20.4 to 326 µM) against S. aureus Mu50 (Staphylococcus aureus, MRSA); at most 0.06 µg/mL in experiment [15]; 0.25 µg/mL (≈ 0.637 µM) in the experiment on E. faecium NCTC12202; over 128 µg/mL against E. faecium RPR2. Moreover, the “MIC ratio (Mu50 MIC/FDA209P MIC)” value with S. aureus Mu50 is recorded as “≧256”.
